Measured values reported in ChEMBL document CHEMBL3603819, “Targeting zoonotic viruses: Structure-based inhibition of the 3C-like protease from bat coronavirus HKU4--The likely reservoir host to the human coronavirus that causes Middle East Respiratory Syndrome (MERS)” (Bioorg Med Chem, 2015).

tested on: Pipistrellus bat coronavirus HKU5; test: Inhibition of Bat coronavirus HKU5 3CLpro at 100 uM relative to control; settings: not given

| Compound | inhibition |
| --- | --- |
| O=C(Nc1ccc(N(Cc2ccsc2)C(=O)Cn2nnc3ccccc32)cc1)c1cccs1 | 91% |

tested on: Tylonycteris bat coronavirus HKU4; settings: at 100 µM

| Compound | inhibition |
| --- | --- |
| O=C(Nc1ccc(N(Cc2ccsc2)C(=O)Cn2nnc3ccccc32)cc1)c1cccs1 | 93% |
| CC(C)(C)NC(=O)C(c1cccnc1)N(C(=O)c1ccsc1)c1ccc(C(C)(C)C)cc1 (stereo not drawn) | 16% |
| Cc1nc2ccccc2n1CC(=O)N(c1ccc(NC(=O)C(C)C)cc1)C(C(=O)NC(C)(C)C)c1ccsc1 (stereo not drawn) | 14% |
| CC(C)c1ccc(N(C(=O)c2cccc3c2CCCC3)C(C(=O)NC(C)(C)C)c2ccsc2)cc1 (stereo not drawn) | 20% |
| CC(C)(C)NC(=O)C(c1ccc(C(C)(C)C)cc1)N(C(=O)c1ccco1)c1ccc(C(C)(C)C)cc1 (stereo not drawn) | 26% |
| CC(C)(C)NC(=O)C(c1ccsc1)N(C(=O)c1ccc(C(F)(F)F)nc1)c1ccc(C(C)(C)C)cc1 (stereo not drawn) | 17% |
| CC(C)(C)NC(=O)C(c1ccsc1)N(C(=O)Cn1nnc2ccccc21)c1ccc(NC(=O)C2CCCCC2)cc1 (stereo not drawn) | 21% |
| COc1ccc(C(=O)N(c2ccc(C(C)(C)C)cc2)C(C(=O)NC(C)(C)C)c2cccnc2)cc1 (stereo not drawn) | 16% |
| CC(C)(C)NC(=O)C(c1cccnc1)N(C(=O)c1ccc(Cl)o1)c1ccc(C(C)(C)C)cc1 (stereo not drawn) | 12% |
| CC(C)(C)NC(=O)C(c1cccnc1)N(C(=O)c1ccco1)c1ccc(-c2ccnc(F)c2)cc1 (stereo not drawn) | 16% |
| CC(C)(C)NC(=O)C(c1ccsc1)N(C(=O)c1n[nH]c2ccccc12)C1CC1 (stereo not drawn) | 21% |
| COCC(=O)Nc1ccc(N(Cc2ccsc2)C(=O)Cn2nnc3ccccc32)cc1 | 91% |
| CC(C)c1ccc(N(C(=O)Cc2c[nH]c3ccccc23)C(C(=O)NC(C)(C)C)c2ccsc2)cc1 (stereo not drawn) | 25% |
| CC(C)(C)NC(=O)C(c1cccnc1)N(C(=O)c1cnco1)c1ccc(C(C)(C)C)cc1 (stereo not drawn) | 96% |
| CC(C)(C)NC(=O)C(c1cncnc1)N(C(=O)c1cnco1)c1ccc(C(C)(C)C)cc1 (stereo not drawn) | 58% |
| COCCC(=O)Nc1ccc(N(Cc2ccsc2)C(=O)Cn2nnc3ccccc32)cc1 | 94% |

tested on: not listed separately; test: Inhibition of Bat coronavirus HKU5 3CLpro; set-up: species or system Pipistrellus bat coronavirus HKU5; settings: not given

| Compound | IC50 |
| --- | --- |
| O=C(Nc1ccc(N(Cc2ccsc2)C(=O)Cn2nnc3ccccc32)cc1)c1cccs1 | 540 nM |
